In ChEMBL document CHEMBL1152586, “Neuraminidase inhibitory activities of flavonols isolated from Rhodiola rosea roots and their in vitro anti-influenza viral activities” (Bioorg Med Chem, 2009):
The source made the active and inactive calls. No cut-off for these calls is given here.

Tests used:
[1] = system: Influenza A virus; experiment: Antiviral activity against influenza A virus H9N2 A/Chicken/Korea/MS96/96 infected in MDCK cells assessed as reduction in virus-induced cytopathic effect; type: functional, organism-based; details: A/Chicken/Korea/MS96/96, MDCK
[2] = molecular target: Neuraminidase (Influenza A virus, UniProt B4URF0); experiment: Noncompetitive inhibition of recombinant influenza A virus rvH1N1 A/Bervig_Mission/1/18 neuraminidase
[3] = Cytotoxicity against MDCK cells after 48 hrs by MTT assay; type: cell-based, Canis lupus familiaris; details: dog
[4] = Selectivity index, ratio of CC50 for MDCK cells to EC50 for influenza virus H1N1 A/PR/8/34; type: toxicity, cell-based; details: dog, read-out: Ratio CC50/EC50
[5] = system: Influenza A virus; experiment: Antiviral activity against influenza A virus H1N1 A/PR/8/34 infected in MDCK cells assessed as reduction in virus-induced cytopathic effect; type: functional, organism-based; details: A/Puerto Rico/8/1934(H1N1)
[6] = Selectivity index, ratio of CC50 for MDCK cells to EC50 for influenza virus H9N2 A/Chicken/Korea/MS96/96; type: toxicity, cell-based; details: dog, read-out: Ratio CC50/EC50
[7] = molecular target: T1, Sialidase (Clostridium perfringens, UniProt P10481); experiment: Inhibition of Clostridium perfringens neuraminidase
T1 sequence (P10481 whole entry): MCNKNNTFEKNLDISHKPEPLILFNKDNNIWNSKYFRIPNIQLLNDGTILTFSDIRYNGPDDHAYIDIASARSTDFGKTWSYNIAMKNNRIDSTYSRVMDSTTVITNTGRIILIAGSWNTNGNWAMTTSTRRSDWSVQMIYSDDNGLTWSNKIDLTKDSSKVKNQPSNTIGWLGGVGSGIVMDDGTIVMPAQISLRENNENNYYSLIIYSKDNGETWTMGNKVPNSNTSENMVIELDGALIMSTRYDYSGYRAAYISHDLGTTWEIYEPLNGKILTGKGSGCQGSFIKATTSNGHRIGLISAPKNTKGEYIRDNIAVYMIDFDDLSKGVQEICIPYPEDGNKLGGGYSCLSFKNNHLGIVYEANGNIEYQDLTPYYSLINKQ

[8] = system: Influenza A virus; experiment: Antiviral activity against influenza A virus H1N1 A/PR/8/34 infected in MDCK cells assessed as reduction in fluorescence positive cells at 50 uM immunofluorescence assay; type: functional, organism-based; details: A/Puerto Rico/8/1934(H1N1)

Compound	EC50 [1] [µM]	IC50 [2] [µM]	Ki [2] [µM]	CC50 at 48 h [3] [µM]	selectivity ratio [4]	EC50 [5] [µM]	selectivity ratio [6]	IC50 [7] [µM]	Activity [8]
O=c1cc(-c2ccc(O)cc2)oc2cc(O)cc(O)c12 [APIGENIN]	42.7	33.4	37.1	> 300	> 4.97	60.4	> 7.03	–	–
O=c1cc(-c2ccc(O)cc2)oc2cc(O[C@@H]3O[C@H](CO)[C@@H](O)[C@H](O)[C@H]3O)cc(O)c12 [APIGETRIN]	–	46.9	53.8	–	–	–	–	39.3	–
O=c1c(O[C@@H]2O[C@H](CO)[C@@H](O)[C@H](O)[C@H]2O)c(-c2ccc(O)cc2)oc2cc(O)cc(O)c12 [ASTRAGALIN]	61.9	38.4	33	> 300	> 7.5	40	> 4.85	29.4	–
O=c1c(O)c(-c2ccc(O)c(O)c2)oc2c(O)c(O)cc(O)c12 [GOSSYPETIN]	36.3	2.6	7.7	283	6.58	43	7.8	0.8	–
O=c1c(O)c(-c2ccc(O)cc2)oc2c(O)c(O)cc(O)c12 [HERBACETIN]	23	8.9	13.7	294	8.39	35	12.8	1.4	–
O=c1c(O)c(-c2ccc(O)cc2)oc2cc(O)cc(O)c12 [KAEMPFEROL]	18.5	11.2	21.1	> 300	> 9.93	30.2	> 16.2	8	Active
O=c1c(O[C@@H]2O[C@H](CO)[C@@H](O)[C@H](O)[C@H]2O)c(-c2ccc(O)cc2)oc2c(O[C@@H]3O[C@H](CO)[C@@H](O)[C@H](O)[C@H]3O)c(O)cc(O)c12 [LINOCINAMARIN]	100	44.2	63.8	> 300	> 3.03	99.1	> 3	39.1	–
O=c1cc(-c2ccc(O)c(O)c2)oc2cc(O)cc(O)c12 [LUTEOLIN]	103	11	19.6	165	1.96	84	1.6	4.3	–
C[C@@H]1O[C@@H](OC[C@H]2O[C@@H](Oc3c(-c4ccc(O)cc4)oc4cc(O)cc(O)c4c3=O)[C@H](O)[C@@H](O)[C@@H]2O)[C@H](O)[C@H](O)[C@H]1O [NICOTIFLOROSIDE]	72.9	31.7	32.7	> 300	> 7.48	40.1	> 4.12	55.5	–
CCOC(=O)C1=C[C@@H](OC(CC)CC)[C@H](NC(C)=O)[C@@H](N)C1 [OSELTAMIVIR]	6.25	–	–	> 300	–	8.3	–	–	Active
O=c1c(O)c(-c2ccc(O)c(O)c2)oc2cc(O)cc(O)c12 [QUERCETIN]	134	2.2	3.8	254	5.89	43.1	1.9	1.7	–
COc1cc([C@H]2Oc3cc(O)c4c(=O)c(O)c(-c5ccc(O)cc5)oc4c3O[C@@H]2CO)ccc1O [RHODIOLININ]	29.3	10.3	14.1	> 300	> 7.19	41.7	> 10.2	6.1	–
C[C@@H]1OC(Oc2cc(O)c3c(=O)c(O)c(-c4ccc(O)cc4)oc3c2O)[C@H](O)[C@H](O)[C@H]1O (stereo partly specified) [RHODIONIN]	49.6	32.2	59.4	> 300	> 4.01	74.8	> 6.05	40.6	–
C[C@@H]1O[C@@H](Oc2cc(O)c3c(=O)c(O)c(-c4ccc(O)cc4)oc3c2O)[C@H](O)[C@H](O[C@@H]2O[C@H](CO)[C@@H](O)[C@H](O)[C@H]2O)[C@H]1O [RHODIOSIN]	–	56.5	64.1	297	3.63	–	8.47	56.9	–
C[C@@H]1O[C@@H](Oc2cc(O)c3c(=O)c(O)c(-c4ccc(O)cc4)oc3c2O)[C@H](O)[C@H](O[C@H]2O[C@@H](CO)[C@H](O)[C@@H](O)[C@@H]2O)[C@H]1O [RHODIOSIN]	35.1	–	–	–	–	81.9	–	–	–
C[C@@H]1O[C@@H](OC[C@H]2O[C@@H](Oc3c(-c4ccc(O)c(O)c4)oc4cc(O)cc(O)c4c3=O)[C@H](O)[C@@H](O)[C@@H]2O)[C@H](O)[C@H](O)[C@H]1O [RUTIN]	–	34.4	33.8	–	–	–	–	30.9	–
